Read-outs that look alike come from different tables or passages of the source.
Assays:
EZH1 = molecular target: T1, EZH1 (Homo sapiens, UniProt Q92800); assay: Inhibitory activity against EZH1 methyltransferase (radiometric scintillation proximity assay); assay type: biochemical; conditions: 2.3 nmol/L enzyme, 90 minutes, room temperature;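 further: Read-out is methylation of a substrate peptide, captured on streptavidin-coated SPA beads and counted by scintillation, in Tris-HCl buffer at pH 8.0 with 1% DMSO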
T1 construct: purchased Reaction Biology Corp. (contract assay)
Method: The inhibitory activities of the synthetic compounds against EZH1 or EZH2 methyltransferase were measured. The experiment was conducted by Reaction Biology Corp., and the activity of EZH1 or EZH2 was measured using a radiometric scintillation proximity assay. […] The reaction buffer consisted of 50 mmol/L Tris-HCl (pH 8.0), 50 mmol/L NaCl, 1 mmol/L EDTA, 1 mmoL/L DTT, 1 mmol/L PMSF, and 1% DMSO. Trichloroacetic acid was added to terminate the reaction, and PVT streptavidin-coated SPA beads were added to each reaction solution, followed by further reaction at room temperature for 1 hour again. The methylation value of the substrate peptide was measured using the TopCount NXT plate reader.

[1] = test system: KARPAS-422 (EZH2 Y641N mutation); assay: Cell growth inhibition test, KARPAS-422; assay type: cell-based; conditions: KARPAS-422, culture time 7 days, read-out: Cell growth inhibitory activity (GI50, nM) KARPAS-422 (EZH2 Y641N mutation)
[2] = test system: Pfeiffer (EZH2 A677G mutation); assay: Cell growth inhibition test, Pfeiffer; assay type: cell-based; conditions: Homo sapiens, read-out: Cell growth inhibitory activity (GI50, nM) Pfeiffer (EZH2 A677G mutation)
Method: Each type of the cultured cells was seeded in 6-well plates or 48-96 well plates, and subculture or medium replacement was performed every 3 to 4 days. Next, the cells were subcultured for a total of 7 to 14 days, and then seeded in 96-well plates. 3 to 5 days before the measurement of the effect, the cells were seeded in 96-well plates, and then the absorbance (Tz) on the day of seeding was measured. The absorbance after the reaction was measured by the plate reader device Synergy NeoAlpha (Biotek) using Cell-Titer-Glo Cell Viability Assay (Promega, G7573) according to the attached manual. Based on the absorbance (Tz) measured on the seeding day and the absorbance of each of the DMSO-treated group (C) and the sample-added group (Ti) measured on the day of effect determination, the percentage of cell proliferation inhibition was calculated according to the following Equation 1. [(Ti−Tz)/(C−Tz)]×100 for concentrations for which Ti≥Tz […] for concentrations for which Ti<Tz. [Equation 1]

[3] = Metabolic stability in human liver microsomes; assay type: in vitro ADME; conditions: 5 μM compound, 1 mg/mL human liver microsomes, 37° C., NADPH regenerating system
Method: (§1) In order to confirm the metabolic stability of the synthetic compounds in the liver, 5 μM test compound and 1 mg/mL human, dog, rat or mouse liver microsomes were allowed to react with each other at 37° C. in the presence of the NADPH regenerating system for 1 hour. After 1 hour, the reaction was terminated and the supernatant obtained by centrifugation was analyzed by HPLC. With the peak value obtained as the analysis result, the residual amount (%) was calculated using the following equation through the peak value of the test compound after 1 hour of the reaction versus the peak value of the test compound at 0 min. Residual amount (%)=(peak value of test compound after 1 hour of reaction/peak value of test compound at 0 min)×100

[4] = Metabolic stability in mouse liver microsomes; assay type: in vitro ADME; conditions: 5 μM compound, 1 mg/mL mouse liver microsomes, 37° C., NADPH regenerating system
Method: as §1

[5] = Mouse pharmacokinetics, oral single dose; assay type: in vivo; conditions: plasma, mice (ICR, male), oral single dose 30 mg/kg; for AUC: read-out: Area under oral curve (AUC)
Method: Pharmacokinetics of the synthetic compounds as EZH2 inhibitors in mice (ICR, 8-week-old, male) were tested.
The oral administration group was maintained in a fasting state from the day before the test to 4 hours after administration of the test compound. On the day of administration of the test compound, the weight of each animal was measured and each synthetic compound was formulated using a selected solvent based on 30 mg/kg (10 mL/kg). Each test compound was administered orally in a single dose, a certain amount of the blood was taken at a predetermined time, plasma was isolated therefrom, and the concentration of each test compound in the plasma was analyzed using LC-MS/MS (Waters UPLC H-Class/Xevo TQ; Waters, USA). Pharmacokinetic coefficients were calculated by a linear-log trapezoidal summation formula using a non-compartment analysis of the Phoenix™ WinNonlin (Certara, USA) program through the plasma concentration curve over time.

EZH2 = EZH2 (Homo sapiens, UniProt Q15910); assay: Inhibitory activity against EZH2 methyltransferase (radiometric scintillation proximity assay); conditions: Enzyme inhibitory activity (IC50, nM) EZH2, 2.3 nmol/L enzyme, 90 minutes, room temperature;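 further: Read-out is substrate peptide methylation, captured on streptavidin-coated SPA beads and counted by scintillation, with the reaction run in Tris-HCl buffer at pH 8.0 containing 1% DMSO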
[6] = Homo sapiens, KARPAS-422, 168 h

T1 sequence (Q92800 whole entry): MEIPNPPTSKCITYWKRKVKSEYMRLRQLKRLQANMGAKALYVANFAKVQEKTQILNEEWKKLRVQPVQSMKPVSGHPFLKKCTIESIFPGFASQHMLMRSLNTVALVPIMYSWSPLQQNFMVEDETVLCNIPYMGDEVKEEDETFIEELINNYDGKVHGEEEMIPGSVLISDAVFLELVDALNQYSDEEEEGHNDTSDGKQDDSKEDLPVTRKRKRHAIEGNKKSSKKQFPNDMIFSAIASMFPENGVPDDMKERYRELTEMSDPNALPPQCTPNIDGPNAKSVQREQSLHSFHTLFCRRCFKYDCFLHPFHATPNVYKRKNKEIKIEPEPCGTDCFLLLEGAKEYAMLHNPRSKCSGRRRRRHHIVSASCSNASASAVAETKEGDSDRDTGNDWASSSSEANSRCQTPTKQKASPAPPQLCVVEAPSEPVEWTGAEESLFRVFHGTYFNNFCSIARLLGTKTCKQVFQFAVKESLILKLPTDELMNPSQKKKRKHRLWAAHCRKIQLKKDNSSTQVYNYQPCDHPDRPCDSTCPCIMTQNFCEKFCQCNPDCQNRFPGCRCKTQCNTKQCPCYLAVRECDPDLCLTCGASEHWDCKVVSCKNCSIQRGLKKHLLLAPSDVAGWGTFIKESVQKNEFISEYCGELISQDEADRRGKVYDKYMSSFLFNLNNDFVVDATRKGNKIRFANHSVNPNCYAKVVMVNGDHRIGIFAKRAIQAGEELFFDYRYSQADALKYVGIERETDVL
T1 sequence (O75530 whole entry partner): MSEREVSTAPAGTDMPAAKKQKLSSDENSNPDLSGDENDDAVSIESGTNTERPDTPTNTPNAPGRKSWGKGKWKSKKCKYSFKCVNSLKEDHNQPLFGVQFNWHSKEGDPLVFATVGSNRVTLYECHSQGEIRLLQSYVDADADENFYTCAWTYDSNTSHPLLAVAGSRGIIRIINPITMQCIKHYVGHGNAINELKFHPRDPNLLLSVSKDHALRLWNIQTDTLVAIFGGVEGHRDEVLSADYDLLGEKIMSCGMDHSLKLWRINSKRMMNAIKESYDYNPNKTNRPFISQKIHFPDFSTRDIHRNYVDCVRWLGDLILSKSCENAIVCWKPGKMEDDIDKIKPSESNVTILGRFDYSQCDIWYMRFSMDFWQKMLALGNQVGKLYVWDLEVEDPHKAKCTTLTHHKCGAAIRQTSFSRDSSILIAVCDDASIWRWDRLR
T1 sequence (Q15022 whole entry partner): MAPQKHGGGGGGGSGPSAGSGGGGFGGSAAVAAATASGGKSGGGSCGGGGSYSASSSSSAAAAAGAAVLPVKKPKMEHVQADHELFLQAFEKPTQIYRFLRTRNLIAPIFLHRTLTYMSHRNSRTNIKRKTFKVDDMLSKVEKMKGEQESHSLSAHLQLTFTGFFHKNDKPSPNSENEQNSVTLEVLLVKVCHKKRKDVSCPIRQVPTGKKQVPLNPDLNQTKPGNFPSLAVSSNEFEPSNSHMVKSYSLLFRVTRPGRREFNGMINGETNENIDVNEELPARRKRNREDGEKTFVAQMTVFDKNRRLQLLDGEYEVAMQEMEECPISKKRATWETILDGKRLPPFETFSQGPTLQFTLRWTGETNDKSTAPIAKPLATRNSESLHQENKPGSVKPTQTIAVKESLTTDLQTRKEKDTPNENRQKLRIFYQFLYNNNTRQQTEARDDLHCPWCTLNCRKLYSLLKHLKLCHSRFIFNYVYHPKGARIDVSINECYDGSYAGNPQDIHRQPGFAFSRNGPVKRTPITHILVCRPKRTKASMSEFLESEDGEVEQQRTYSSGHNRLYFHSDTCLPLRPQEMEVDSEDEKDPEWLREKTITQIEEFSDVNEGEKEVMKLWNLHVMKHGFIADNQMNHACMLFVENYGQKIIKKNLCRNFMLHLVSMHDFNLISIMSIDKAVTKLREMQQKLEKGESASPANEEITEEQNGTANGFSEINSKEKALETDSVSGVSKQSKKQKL
T1 sequence (Q09028 whole entry partner): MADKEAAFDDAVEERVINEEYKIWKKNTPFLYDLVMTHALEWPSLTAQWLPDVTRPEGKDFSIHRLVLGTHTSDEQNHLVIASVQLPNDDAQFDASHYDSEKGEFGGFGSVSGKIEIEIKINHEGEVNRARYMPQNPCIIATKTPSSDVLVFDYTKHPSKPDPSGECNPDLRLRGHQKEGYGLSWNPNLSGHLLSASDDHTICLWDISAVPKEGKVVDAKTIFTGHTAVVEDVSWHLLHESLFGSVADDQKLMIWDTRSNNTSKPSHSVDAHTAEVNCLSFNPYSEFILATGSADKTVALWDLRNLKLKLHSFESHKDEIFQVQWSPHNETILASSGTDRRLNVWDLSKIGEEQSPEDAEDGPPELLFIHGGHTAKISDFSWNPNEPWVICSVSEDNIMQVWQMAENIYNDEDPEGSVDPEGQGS
T1 sequence (Q6ZN18 whole entry partner): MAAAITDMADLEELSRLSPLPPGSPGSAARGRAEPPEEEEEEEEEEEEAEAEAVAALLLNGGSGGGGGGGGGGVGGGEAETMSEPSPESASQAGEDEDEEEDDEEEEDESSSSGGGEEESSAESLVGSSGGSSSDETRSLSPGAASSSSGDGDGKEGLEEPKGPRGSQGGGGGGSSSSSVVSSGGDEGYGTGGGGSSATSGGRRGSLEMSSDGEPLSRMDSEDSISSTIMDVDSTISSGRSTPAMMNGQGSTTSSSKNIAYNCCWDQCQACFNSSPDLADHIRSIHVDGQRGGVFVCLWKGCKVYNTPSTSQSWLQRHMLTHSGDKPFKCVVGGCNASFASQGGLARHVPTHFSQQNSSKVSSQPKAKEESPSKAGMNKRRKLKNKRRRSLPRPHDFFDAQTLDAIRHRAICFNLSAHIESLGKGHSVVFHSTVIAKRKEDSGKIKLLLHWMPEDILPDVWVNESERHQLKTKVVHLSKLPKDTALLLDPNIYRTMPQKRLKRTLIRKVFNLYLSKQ
Sequence of EZH2 (Q15910 whole entry): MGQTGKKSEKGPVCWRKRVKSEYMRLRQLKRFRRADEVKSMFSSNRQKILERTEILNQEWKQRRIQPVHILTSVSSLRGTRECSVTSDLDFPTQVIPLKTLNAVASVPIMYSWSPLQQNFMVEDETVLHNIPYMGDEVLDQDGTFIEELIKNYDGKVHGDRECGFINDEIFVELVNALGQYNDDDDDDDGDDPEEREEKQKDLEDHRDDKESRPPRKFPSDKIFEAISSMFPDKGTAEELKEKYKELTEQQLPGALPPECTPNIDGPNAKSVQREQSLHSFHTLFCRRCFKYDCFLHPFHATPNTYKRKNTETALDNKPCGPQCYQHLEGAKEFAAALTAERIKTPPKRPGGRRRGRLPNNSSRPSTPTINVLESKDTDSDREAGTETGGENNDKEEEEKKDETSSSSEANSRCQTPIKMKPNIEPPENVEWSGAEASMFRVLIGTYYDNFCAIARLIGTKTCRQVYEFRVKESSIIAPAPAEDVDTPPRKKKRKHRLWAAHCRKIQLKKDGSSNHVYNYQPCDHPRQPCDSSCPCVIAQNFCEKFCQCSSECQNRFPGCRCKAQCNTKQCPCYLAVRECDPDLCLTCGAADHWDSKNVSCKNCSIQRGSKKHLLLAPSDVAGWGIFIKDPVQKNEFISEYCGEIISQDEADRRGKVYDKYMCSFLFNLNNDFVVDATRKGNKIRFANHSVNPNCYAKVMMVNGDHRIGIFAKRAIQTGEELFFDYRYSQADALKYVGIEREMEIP
Sequence of EZH2 (O75530 whole entry partner): as the sequence (O75530 whole entry partner) above
Sequence of EZH2 (Q15022 whole entry partner): as the sequence (Q15022 whole entry partner) above
Sequence of EZH2 (Q09028 whole entry partner): as the sequence (Q09028 whole entry partner) above
Sequence of EZH2 (Q6ZN18 whole entry partner): as the sequence (Q6ZN18 whole entry partner) above

Row | SMILES | IC50 (EZH1) [nM] | GI50 [1, 6] [nM] | GI50 [2] [nM] | Residual amount (%) of test compound after 1 hour of reaction, Human [3] [%] | Residual amount (%) of test compound after 1 hour of reaction, Mouse [4] [%] | AUC ([5]; male, ICR, mouse, po, 30 mg/kg) [ng·h/mL] | Half life T1/2 [5] | IC50 (EZH2) [nM] | GI50 [1] [nM] | half-life ([5]; male, ICR, mouse, po, 30 mg/kg, read-out: Half life T1/2 (converted)) [h]
1 | Cc1cc(C)c(CN2CCc3c(Cl)c4c(c(C)c3C2=O)OC(C)([C@H]2CC[C@H](N(C)C)CC2)O4)c(=O)[nH]1 (mixture of isomers) [Compound 9, 9-chloro-6-((4,6-dimethyl-2-oxo-1,2-dihydropyridin-3-yl)methyl)-2-(trans-4-(dimethylamino)cyclohexyl)-2,4-dimethyl-7,8-dihydro-[1,3]dioxolo[4,5-g]isoquinolin-5(6H)-one] | 16 to 43 | 2 to 15 | 0.97 | 57 | 56 | 14900 to 16400 | 2.4~2.3 hr | 1.5 to 5 | – | –
2 | Cc1cc(C)c(CN2CCc3c(Cl)c4c(c(C)c3C2=O)OC(C)([C@H]2CC[C@H](N(C)C)CC2)O4)c(=O)[nH]1 (single isomer, unassigned) [Compound 10, 9-chloro-6-((4,6-dimethyl-2-oxo-1,2-dihydropyridin-3-yl)methyl)-2-(trans-4-(dimethylamino)cyclohexyl)-2,4-dimethyl-7,8-dihydro-[1,3]dioxolo[4,5-g]isoquinolin-5(6H)-one] | 10 to 21 | – | 0.84 | 79 | 55 | – | – | 0.8 to 1.4 | 2.5 to 13 | –
3 | Cc1cc(C)c(CN2CCc3c(C)c4c(c(C)c3C2=O)OC(C)([C@H]2CC[C@H](N(C)C)CC2)O4)c(=O)[nH]1 (single isomer, unassigned) [Compound 40, 6-((4,6-dimethyl-2-oxo-1,2-dihydropyridin-3-yl)methyl)-2-(trans-4-(dimethylamino)cyclohexyl)-2,4,9-trimethyl-7,8-dihydro-[1,3]dioxolo[4,5-g]isoquinolin-5(6H)-one] | 28 | – | 0.71 | 82 | 84 | – | – | 1.8 | 1.8 | –
4 | Cc1cc(C)c(CN2CCc3c(Cl)c4c(c(C)c3C2=O)OC(C)([C@H]2CC[C@@H](N(C)C)CC2)O4)c(=O)[nH]1 (stereo partly drawn) [Compound 12, 9-chloro-6-((4,6-dimethyl-2-oxo-1,2-dihydropyridin-3-yl)methyl)-2-(cis-4-(dimethylamino)cyclohexyl)-2,4-dimethyl-7,8-dihydro-[1,3]dioxolo[4,5-g]isoquinolin-5(6H)-one] | 23 to 50 | 4.9 to 15 | 0.66 | 57 | 61 | – | – | 3.2 | – | –
5 | COc1cc(C)[nH]c(=O)c1CN1CCc2c(Cl)c3c(c(C)c2C1=O)OC(C)([C@H]1CC[C@H](N(C)C)CC1)O3 (stereo partly drawn) [Compound 13, 9-chloro-2-(trans-4-(dimethylamino)cyclohexyl)-6-((4-methoxy-6-methyl-2-oxo-1,2-dihydropyridin-3-yl)methyl)-2,4-dimethyl-7,8-dihydro-[1,3]dioxolo[4,5-g]isoquinolin-5(6H)-one] | 23 to 35 | 1.8 to 9.6 | 0.27 | 82 | 79 | 1040 | – | 1.8 to 2.3 | – | –
6 | CN[C@H]1CC[C@H](C2(C)Oc3c(C)c4c(c(Cl)c3O2)CCN(Cc2c(C)cc(C)[nH]c2=O)C4=O)CC1 (stereo partly drawn) [Compound 34, 9-chloro-6-((4,6-dimethyl-2-oxo-1,2-dihydropyridin-3-yl)methyl)-2,4-dimethyl-2-(trans-4-(methylamino)cyclohexyl)-7,8-dihydro-[1,3]dioxolo[4,5-g]isoquinolin-5(6H)-one] | 9.7 | 3.2 | 1.48 | 66 | 100 | – | – | 1.4 | – | –
7 | Cc1cc(C)c(CN2CCc3c(C)c4c(c(C)c3C2=O)OC(C)([C@H]2CC[C@H](N(C)C)CC2)O4)c(=O)[nH]1 (stereo partly drawn) [Compound 39, 6-((4,6-dimethyl-2-oxo-1,2-dihydropyridin-3-yl)methyl)-2-(trans-4-(dimethylamino)cyclohexyl)-2,4,9-trimethyl-7,8-dihydro-[1,3]dioxolo[4,5-g]isoquinolin-5(6H)-one] | 9.7 to 30 | 3.2 to 8.4 | 0.76 to 0.99 | 62 | 80 | 3650 | – | 1.2 to 6.2 | – | –
8 | COc1cc(C)[nH]c(=O)c1CN1CCc2c(C)c3c(c(C)c2C1=O)OC(C)([C@H]1CC[C@H](N(C)C)CC1)O3 (stereo partly drawn) [Compound 42, 2-(trans-4-(dimethylamino)cyclohexyl)-6-((4-methoxy-6-methyl-2-oxo-1,2-dihydropyridin-3-yl)methyl)-2,4,9-trimethyl-7,8-dihydro-[1,3]dioxolo[4,5-g]isoquinolin-5(6H)-one] | 31 to 34 | 2.6 to 8.8 | 0.97 to 1.41 | 74 | 88 | – | – | 3.4 to 6 | – | –
9 | CCCc1cc(C)[nH]c(=O)c1CN1CCc2c(C)c3c(c(C)c2C1=O)OC(C)([C@H]1CC[C@H](N(C)C)CC1)O3 (stereo partly shown) [Compound 43] | 8.1 | 58 | 6.76 | 52 | 61 | – | – | 1.4 | – | –
10 | Cc1cc(C)c(CN2CCc3c(Br)c4c(c(C)c3C2=O)OC(C)([C@H]2CC[C@H](N(C)C)CC2)O4)c(=O)[nH]1 (stereo partly drawn) [Compound 48, 9-bromo-6-((4,6-dimethyl-2-oxo-1,2-dihydropyridin-3-yl)methyl)-2-(trans-4-(dimethylamino)cyclohexyl)-2,4-dimethyl-7,8-dihydro-[1,3]dioxolo[4,5-g]isoquinolin-5(6H)-one] | – | 3.7 to 12.4 | 0.77 | 54 | 52 | 17300 to 18700 | – | – | – | 2.8 to 3.2

Source: patent US12344618B2, “Heterotricyclic derivative compound and use of same” (HANMI PHARMACEUTICAL CO., LTD., priority 2019, dated 2025)
